# Assay results from ChEMBL document CHEMBL4665653, “VU6005806/AZN-00016130, an advanced M positive allosteric modulator (PAM) profiled as a potential preclinical development candidate” (Bioorg Med Chem Lett, 2019).
# The source made the active and inactive calls. The rule behind the calls is not given here.
# Key:
# [1] = target: Muscarinic acetylcholine receptor M5 (Homo sapiens, UniProt P08912); experiment: Positive allosteric modulation of human M5 receptor
# [2] = Hepatic clearance in human; assay type: ADME
# [3] = Fraction unbound in rat plasma; assay type: ADME, cell-free
# [4] = Fraction unbound in rat brain; assay type: ADME, tissue-based
# [5] = Solubility of the compound pH 7.5; assay type: physicochemical; conditions: buffer
# [6] = species: Macaca fascicularis; experiment: Positive allosteric modulation of cynomolgus monkey M4 receptor relative to acetylcholine; conditions: filed as positive allosteric modulator
# [7] = target: Muscarinic acetylcholine receptor M3 (Rattus norvegicus, UniProt P08483); experiment: Positive allosteric modulation of rat M3 receptor
# Sequence of Muscarinic acetylcholine receptor M3 (P08483 whole entry): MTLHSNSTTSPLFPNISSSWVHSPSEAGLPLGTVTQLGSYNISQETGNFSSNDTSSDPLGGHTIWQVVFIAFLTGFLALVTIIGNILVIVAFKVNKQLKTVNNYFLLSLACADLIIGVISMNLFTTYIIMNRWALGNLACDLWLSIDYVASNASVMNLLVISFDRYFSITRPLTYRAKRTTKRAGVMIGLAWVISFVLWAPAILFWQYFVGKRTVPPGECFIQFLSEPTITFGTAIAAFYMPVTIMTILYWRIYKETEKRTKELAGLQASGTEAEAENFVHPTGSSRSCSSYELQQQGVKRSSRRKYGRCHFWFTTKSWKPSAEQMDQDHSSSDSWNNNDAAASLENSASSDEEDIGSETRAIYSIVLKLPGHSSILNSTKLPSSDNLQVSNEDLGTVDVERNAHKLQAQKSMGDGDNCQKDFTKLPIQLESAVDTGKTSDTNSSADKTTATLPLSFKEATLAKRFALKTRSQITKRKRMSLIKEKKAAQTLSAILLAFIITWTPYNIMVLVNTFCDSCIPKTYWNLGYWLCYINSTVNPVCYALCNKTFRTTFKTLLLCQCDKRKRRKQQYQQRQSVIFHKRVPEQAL
# [8] = target: Muscarinic acetylcholine receptor M5 (Rattus norvegicus, UniProt P08911); experiment: Positive allosteric modulation of rat M5 receptor
# [9] = target: Cytochrome P450 2D6 (Homo sapiens, UniProt P10635); experiment: Inhibition of CYP2D6 (unknown origin); assay type: ADME
# [10] = target: Cytochrome P450 2C9 (Homo sapiens, UniProt P11712); experiment: Inhibition of CYP2C9 (unknown origin); assay type: ADME
# Sequence of Cytochrome P450 2C9 (P11712 whole entry): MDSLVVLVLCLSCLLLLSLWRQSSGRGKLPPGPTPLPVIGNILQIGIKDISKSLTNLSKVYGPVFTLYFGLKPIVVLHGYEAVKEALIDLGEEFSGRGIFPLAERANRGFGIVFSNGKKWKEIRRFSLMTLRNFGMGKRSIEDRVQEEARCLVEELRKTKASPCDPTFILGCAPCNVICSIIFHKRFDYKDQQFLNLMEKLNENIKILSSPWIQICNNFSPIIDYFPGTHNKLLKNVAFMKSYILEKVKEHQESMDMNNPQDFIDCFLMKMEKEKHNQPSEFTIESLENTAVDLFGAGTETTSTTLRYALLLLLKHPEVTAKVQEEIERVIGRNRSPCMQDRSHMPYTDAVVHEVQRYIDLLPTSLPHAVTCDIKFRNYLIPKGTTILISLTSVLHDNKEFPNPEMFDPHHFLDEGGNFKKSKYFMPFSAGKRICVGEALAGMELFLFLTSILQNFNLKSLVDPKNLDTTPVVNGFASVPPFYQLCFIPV
# [11] = Plasma clearance in dog; assay type: ADME, Canis lupus familiaris; conditions: read-out: CL(app)
# [12] = Half life in cynomolgus monkey; assay type: ADME, Macaca fascicularis; conditions: in vivo
# [13] = system: Rattus norvegicus; experiment: Reversal of amphetamine-induced hyperlocomotion in rat at 3 mg/kg, po relative to control; assay type: functional
# [14] = system: Rattus norvegicus; experiment: Reversal of amphetamine-induced hyperlocomotion in po dosed rat assessed as minimum effective dose; assay type: functional; conditions: read-out: MED
# [15] = system: Mus musculus; experiment: Reversal of amphetamine-induced hyperlocomotion in C57BL/6 mouse at 0.1 to 10 mg/kg, po pretreated for 30 mins after habituation in chamber followed by amphetamine challenge and measured after 1 hr; assay type: functional, organism-based; conditions: dose mg/kg 0.1-10, time 30.0 min
# [16] = Brain to plasma permeability coefficient, Kp in Sprague-Dawley rat at 0.1 to 0.2 mg/kg, iv measured after 1.5 hrs; assay type: ADME, organism-based; conditions: dose 0.1-0.2 mg/kg
# [17] = target: D(1A) dopamine receptor (Homo sapiens) (UniProt P21728); experiment: Displacement of [3H]-SCH 23390 from recombinant full length human dopamine D1 receptor expressed in CHO cells assessed as residual binding level for radioligand at 10 uM after 120 mins by radiometric scintillation analysis relative to control; assay type: cell-based
# Sequence of D(1A) dopamine receptor (Homo sapiens) (P21728 whole entry): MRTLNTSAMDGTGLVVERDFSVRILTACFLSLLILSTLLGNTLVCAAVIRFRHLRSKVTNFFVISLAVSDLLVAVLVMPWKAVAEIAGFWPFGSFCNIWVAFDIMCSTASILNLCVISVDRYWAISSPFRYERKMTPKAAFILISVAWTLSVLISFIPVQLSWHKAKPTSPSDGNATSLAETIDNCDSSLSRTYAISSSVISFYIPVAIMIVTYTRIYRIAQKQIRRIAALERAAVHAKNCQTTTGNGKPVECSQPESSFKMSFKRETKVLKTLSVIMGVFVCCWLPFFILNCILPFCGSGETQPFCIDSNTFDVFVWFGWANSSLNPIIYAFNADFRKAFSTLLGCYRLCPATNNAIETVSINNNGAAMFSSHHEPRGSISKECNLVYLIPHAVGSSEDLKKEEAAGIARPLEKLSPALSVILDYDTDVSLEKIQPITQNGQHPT
# [18] = target: L-type calcium channel Cav1.2, dihydropyridine binding site (Rattus norvegicus, UniProt P22002); experiment: Displacement of [3H]-Nitrendipine from L-type calcium channel Cav1.2 dihydropyridine binding site in Wistar rat brain assessed as residual binding level for radioligand at 10 uM incubated for 90 mins by radiometric scintillation analysis relative to control; assay type: tissue-based; conditions: probe [3H]-Nitrendipine, read-out: Activity
# [19] = target: B2 bradykinin receptor (Homo sapiens) (UniProt P30411); experiment: Displacement of [3H]bradykinin from recombinant full length human B2 receptor expressed in Chem-1 cells assessed as residual binding level for radioligand at 10 uM after 60 mins by radiometric scintillation analysis relative to control; assay type: cell-based
# Sequence of B2 bradykinin receptor (Homo sapiens) (P30411 whole entry): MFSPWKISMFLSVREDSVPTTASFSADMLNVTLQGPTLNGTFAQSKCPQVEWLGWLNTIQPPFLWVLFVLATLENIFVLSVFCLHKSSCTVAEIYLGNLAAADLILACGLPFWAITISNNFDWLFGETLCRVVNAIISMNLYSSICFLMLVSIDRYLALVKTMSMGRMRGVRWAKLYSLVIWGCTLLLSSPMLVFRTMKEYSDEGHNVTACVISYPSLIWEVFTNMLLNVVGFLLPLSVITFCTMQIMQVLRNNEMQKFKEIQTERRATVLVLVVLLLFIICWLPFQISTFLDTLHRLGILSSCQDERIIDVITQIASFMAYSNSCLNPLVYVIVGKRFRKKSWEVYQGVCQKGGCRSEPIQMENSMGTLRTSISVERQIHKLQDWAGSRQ
# [20] = target: Beta-2 adrenergic receptor (Homo sapiens) (UniProt P07550); experiment: Displacement of [3H]-(-)CGP 12177 from recombinant full length human adrenergic beta 2 receptor expressed in CHO-hNBR1 cells assessed as residual binding level for radioligand at 10 uM incubated for 60 mins by radiometric scintillation analysis relative to control; assay type: cell-based
# [21] = target: Alpha-1A adrenergic receptor (Homo sapiens) (UniProt P35348); experiment: Displacement of [3H]-Prazosin from human adrenergic alpha 1A receptor expressed in Chem-1 cells assessed as residual binding level for radioligand at 10 uM incubated for 60 mins by radiometric scintillation analysis relative to control; assay type: cell-based
# [22] = species: Rattus norvegicus; experiment: Displacement of [35S] dATPalphaS from P2Y receptor in Wistar rat brain at 10 uM incubated for 180 mins by radiometric scintillation analysis relative to control; assay type: tissue-based
# [23] = target: Adenosine receptor A2a (Homo sapiens) (UniProt P29274); experiment: Displacement of [3H]CGS-21680 from full length recombinant human A2A receptor expressed in HEK293 cells assessed as residual binding level for radioligand at 10 uM measured after 90 mins radiometric scintillation analysis relative to control; assay type: cell-based
# Sequence of Adenosine receptor A2a (Homo sapiens) (P29274 whole entry): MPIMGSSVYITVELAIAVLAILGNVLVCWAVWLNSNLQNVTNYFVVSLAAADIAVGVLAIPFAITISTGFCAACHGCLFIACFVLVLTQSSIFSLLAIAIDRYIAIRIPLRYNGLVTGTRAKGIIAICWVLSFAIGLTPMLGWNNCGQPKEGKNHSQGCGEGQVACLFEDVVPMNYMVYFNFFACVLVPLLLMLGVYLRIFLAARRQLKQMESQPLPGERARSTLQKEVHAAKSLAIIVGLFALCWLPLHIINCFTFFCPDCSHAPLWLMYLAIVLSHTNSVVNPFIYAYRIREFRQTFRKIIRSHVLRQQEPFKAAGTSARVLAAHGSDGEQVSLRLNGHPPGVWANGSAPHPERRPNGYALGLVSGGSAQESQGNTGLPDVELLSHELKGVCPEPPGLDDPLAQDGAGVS
# [24] = target: Epidermal growth factor receptor (Homo sapiens) (UniProt P00533); experiment: Displacement of [125I]-EGF from human EGF receptor expressed in A-431 cells assessed as residual binding level for radioligand at 10 uM incubated for 60 mins by radiometric scintillation analysis relative to control; assay type: cell-based
# [25] = target: Glucocorticoid receptor (Homo sapiens) (UniProt P04150); experiment: Displacement of [3H]Dexamethasone from recombinant full length human glucocorticoid receptor expressed in insect cells assessed as residual binding level for radioligand at 10 uM incubated for 1440 mins by scintillation counting analysis relative to control
# [26] = species: Rattus norvegicus; experiment: Displacement of [3H]-Kainic acid from Glutamate ionotropic kainate receptor in Wistar rat brain assessed as residual binding level for radioligand at 10 uM incubated for 120 mins by scintillation counting analysis relative to control; assay type: tissue-based
# [27] = target: Histamine H3 receptor (Homo sapiens) (UniProt Q9Y5N1); experiment: Displacement of [3H]-N-alpha-Methylhistamine from full length recombinant human recombinant Histamine H3 receptor expressed in CHO-K1 cells assessed as residual binding level for radioligand at 10 uM incubated for 120 mins by scintillation counting analysis relative to control; assay type: cell-based
# [28] = target: Melatonin receptor type 1A (Homo sapiens) (UniProt P48039); experiment: Displacement of 2-[1251]-iodomelatonin from human MT1 receptor expressed in CHO-K1 cells assessed as residual binding level for radioligand at 10 uM incubated for180 mins by scintillation counting analysis relative to control; assay type: cell-based; conditions: time 180.0 min
# [29] = target: Substance-P receptor (Homo sapiens) (UniProt P25103); experiment: Displacement of [3H]substance P from recombinant full length human NK1R expressed in CHO cells assessed as residual binding level for radioligand at 10 uM after 90 mins by radiometric scintillation analysis relative to control; assay type: cell-based
# Sequence of Substance-P receptor (Homo sapiens) (P25103 whole entry): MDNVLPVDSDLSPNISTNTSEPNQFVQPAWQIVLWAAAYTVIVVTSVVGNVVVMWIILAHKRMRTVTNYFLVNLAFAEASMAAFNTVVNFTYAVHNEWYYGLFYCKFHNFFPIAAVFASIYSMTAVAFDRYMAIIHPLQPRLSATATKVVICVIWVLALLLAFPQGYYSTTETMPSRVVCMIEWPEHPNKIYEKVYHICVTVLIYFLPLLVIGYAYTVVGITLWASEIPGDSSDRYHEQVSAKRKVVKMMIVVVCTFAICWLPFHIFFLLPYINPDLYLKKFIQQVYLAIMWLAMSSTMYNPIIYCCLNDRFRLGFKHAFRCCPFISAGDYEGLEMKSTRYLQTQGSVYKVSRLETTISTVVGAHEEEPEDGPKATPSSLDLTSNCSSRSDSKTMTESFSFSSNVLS
# [30] = target: Neuropeptide Y receptor type 1 (Homo sapiens) (UniProt P25929); experiment: Displacement of [125I]peptide YY from human Y1 receptor in SK-N-MC cell membrane assessed as residual binding level for radioligand at 10 uM after 120 mins by scintillation counting analysis relative to control
# Sequence of Neuropeptide Y receptor type 1 (Homo sapiens) (P25929 whole entry): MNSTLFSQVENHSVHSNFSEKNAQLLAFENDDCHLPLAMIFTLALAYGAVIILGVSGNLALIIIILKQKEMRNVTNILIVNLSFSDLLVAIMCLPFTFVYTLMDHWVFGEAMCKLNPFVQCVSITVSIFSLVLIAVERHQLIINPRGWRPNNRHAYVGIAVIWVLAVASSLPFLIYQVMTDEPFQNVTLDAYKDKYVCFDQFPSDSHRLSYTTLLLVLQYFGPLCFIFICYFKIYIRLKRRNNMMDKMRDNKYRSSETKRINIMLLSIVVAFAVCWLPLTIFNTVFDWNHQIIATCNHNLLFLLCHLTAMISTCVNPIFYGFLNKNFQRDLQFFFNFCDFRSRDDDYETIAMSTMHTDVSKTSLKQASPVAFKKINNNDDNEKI
# [31] = target: Neuronal acetylcholine receptor; alpha3/beta4 (Homo sapiens) (UniProt P30926+P32297); experiment: Displacement of [125I] epibatidine from human nicotinic acetylcholine receptor alpha3/beta4 assessed as residual binding level for radioligand at 10 uM incubated for 60 mins by scintillation counting analysis relative to control; assay type: protein-complex assay
# [32] = target: Kappa-type opioid receptor (Homo sapiens) (UniProt P41145); experiment: Displacement of [3H]-Diprenorphine from recombinant full length human kappa opioid receptor expressed in HEK293 cells assessed as residual binding level for radioligand at 10 uM incubated for 60 mins by scintillation counting analysis relative to control; assay type: cell-based
# Sequence of Kappa-type opioid receptor (Homo sapiens) (P41145 whole entry): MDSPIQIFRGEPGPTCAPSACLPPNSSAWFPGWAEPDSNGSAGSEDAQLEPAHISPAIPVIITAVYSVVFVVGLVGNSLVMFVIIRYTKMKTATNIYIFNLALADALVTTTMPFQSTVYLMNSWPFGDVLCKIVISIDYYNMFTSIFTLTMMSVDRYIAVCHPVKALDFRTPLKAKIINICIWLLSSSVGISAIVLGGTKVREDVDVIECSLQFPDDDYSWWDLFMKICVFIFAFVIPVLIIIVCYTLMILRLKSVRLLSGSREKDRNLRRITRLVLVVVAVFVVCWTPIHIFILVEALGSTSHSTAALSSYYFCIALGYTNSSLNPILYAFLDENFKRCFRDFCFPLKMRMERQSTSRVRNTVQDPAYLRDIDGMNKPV
# [33] = target: hERG (KCNH2) (Homo sapiens, UniProt Q12809); experiment: Displacement of [3H]-Astemizole from human recombinant full length ERG channel expressed in HEK293 cells assessed as residual binding level for radioligand at 10 uM incubated for 60 mins by scintillation counting analysis relative to control; assay type: cell-based; conditions: probe [3H]-Astemizole, read-out: INH
# Sequence of hERG (KCNH2) (Q12809 whole entry): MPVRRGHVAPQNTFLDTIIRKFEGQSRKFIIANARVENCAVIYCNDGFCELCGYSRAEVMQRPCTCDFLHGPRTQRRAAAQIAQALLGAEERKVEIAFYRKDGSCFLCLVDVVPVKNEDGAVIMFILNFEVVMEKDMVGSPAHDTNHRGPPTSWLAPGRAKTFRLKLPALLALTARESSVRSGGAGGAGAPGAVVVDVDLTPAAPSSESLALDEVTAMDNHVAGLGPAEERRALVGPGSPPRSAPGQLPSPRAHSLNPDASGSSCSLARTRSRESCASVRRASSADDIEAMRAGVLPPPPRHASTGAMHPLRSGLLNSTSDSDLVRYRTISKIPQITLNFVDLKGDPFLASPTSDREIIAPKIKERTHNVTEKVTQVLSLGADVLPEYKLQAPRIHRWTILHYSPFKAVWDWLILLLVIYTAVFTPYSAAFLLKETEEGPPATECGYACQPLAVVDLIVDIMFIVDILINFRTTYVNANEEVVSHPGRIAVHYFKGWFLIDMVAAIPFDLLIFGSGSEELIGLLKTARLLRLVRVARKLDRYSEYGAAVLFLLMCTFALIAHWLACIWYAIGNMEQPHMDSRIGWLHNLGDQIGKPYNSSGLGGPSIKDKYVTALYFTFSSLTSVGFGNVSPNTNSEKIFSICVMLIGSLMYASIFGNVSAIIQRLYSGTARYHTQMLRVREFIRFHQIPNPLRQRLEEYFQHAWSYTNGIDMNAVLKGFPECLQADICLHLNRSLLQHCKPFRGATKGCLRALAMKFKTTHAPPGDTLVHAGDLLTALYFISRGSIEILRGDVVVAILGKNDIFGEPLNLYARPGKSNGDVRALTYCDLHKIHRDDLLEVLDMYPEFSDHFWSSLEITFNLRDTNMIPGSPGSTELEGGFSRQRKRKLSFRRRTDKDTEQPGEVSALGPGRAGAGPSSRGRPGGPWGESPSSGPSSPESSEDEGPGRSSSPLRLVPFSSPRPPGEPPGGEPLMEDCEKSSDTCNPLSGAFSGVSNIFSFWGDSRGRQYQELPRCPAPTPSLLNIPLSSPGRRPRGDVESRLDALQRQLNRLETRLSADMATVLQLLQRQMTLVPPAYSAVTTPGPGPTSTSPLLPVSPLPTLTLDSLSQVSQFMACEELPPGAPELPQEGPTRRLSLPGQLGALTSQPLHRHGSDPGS
# [34] = target: Platelet-activating factor receptor (Homo sapiens) (UniProt P25105); experiment: Displacement of [3H]-PAF from human PAF receptor assessed as residual binding level for radioligand at 10 uM incubated for 180 mins by scintillation counting analysis relative to control
# Sequence of Platelet-activating factor receptor (Homo sapiens) (P25105 whole entry): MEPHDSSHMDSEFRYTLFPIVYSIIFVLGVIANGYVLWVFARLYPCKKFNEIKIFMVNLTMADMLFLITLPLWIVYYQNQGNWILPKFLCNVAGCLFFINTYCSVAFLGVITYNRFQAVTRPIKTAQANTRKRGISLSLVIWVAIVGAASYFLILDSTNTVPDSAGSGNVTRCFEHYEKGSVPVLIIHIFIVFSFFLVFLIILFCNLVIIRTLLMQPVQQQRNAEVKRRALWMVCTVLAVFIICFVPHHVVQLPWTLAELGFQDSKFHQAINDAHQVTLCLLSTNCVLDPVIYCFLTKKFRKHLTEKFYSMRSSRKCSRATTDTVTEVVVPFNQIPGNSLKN
compound,measurement,setting,value
COc1nnc2sc(C(=O)NC3CN(c4ncc(C(F)(F)F)cn4)C3)c(N)c2c1C,EC50,[1],> 30 µM
same,CLH,[2],2.52 mL/min/kg
same,fraction unbound,[3],0.018
same,fraction unbound,[4],0.039
same,solubility,[5],2.9 µM
same,%max,[6],57%
same,EC50,[7],> 30 µM
same,EC50,[8],> 30 µM
same,IC50,[9],> 30 µM
same,IC50,[10],> 30 µM
same,clearance,[11],5.9 mL/min/kg
same,half-life,[12],1.3 h
same,Activity,[13],54%
same,minimal effective dose,[14],0.56 mg/kg
same,Activity,[15],Active
same,Kp at 1.5 h,[16],0.16
same,Activity,[17],> 50%
same,"activity at 1.5 h, 10 µM",[18],> 50%
same,Activity,[19],> 50%
same,Activity,[20],> 50%
same,Activity,[21],> 50%
same,Activity,[22],> 50%
same,Activity,[23],> 50%
same,Activity,[24],> 50%
same,Activity,[25],> 50%
same,Activity,[26],> 50%
same,Activity,[27],> 50%
same,Activity,[28],> 50%
same,Activity,[29],> 50%
same,Activity,[30],> 50%
same,Activity,[31],> 50%
same,Activity,[32],> 50%
same,"activity at 1 h, 10 µM",[33],< 25%
same,Activity,[34],> 50%
